How the values were obtained:
[1] = system: MDA-MB-231 breast cancer cell line; experiment: MTT antiproliferative assay, MDA-MB-231; assay type: cell-based; conditions: for IC50: MDA-MB-231, MTT assay
Method: (§1) The antiproliferative activity and cytotoxicity of DHA-5-methylisatin hybrids 6a–c and 7a–m against MCF-7, MDA-MB-231, MCF-7/ADR, and MDA-MB-231/ADR (Purchased from Procell) breast cancer cell lines as well as MCF-10A were assessed by 3-(4,5-dimethylthiazol-2-yl)-2,5-diphenyltetrazolium bromide (MTT) assay.
(§2) MCF-7, MDA-MB-231, MCF-7/ADR, and MDA-MB-231/ADR breast cancer cell lines (2 × 10^3) were plated in each well of a 96-well plate and were allowed to adhere and spread for 24 h. The dihydroartemisinin-5-methylisatin hybrids 6a–e and 7a–m were added to a final concentration of 100 µM, and the cells were cultured for 24 h at 37 °C. 3-(4,5-dimethyl-2-thiazolyl)-2,5-diphenyltetrazolium bromide (MTT) solution (10 µL) was added to each well, and the cultures were incubated for an additional 4 h. A further 100 µL of MTT solution was added and incubation continued overnight. The absorbance at 540 nm was determined in each well with a 96-well plate reader. The growth of the treated cells was compared with that of untreated cells.

[2] = system: MCF-7/ADR breast cancer cell line; experiment: MTT antiproliferative assay, MCF-7/ADR; assay type: cell-based; conditions: MCF-7/ADR (drug-resistant)
Method: as §1, §2

[3] = system: normal MCF-10A breast cells
Method: as §1, §2

[4] = system: MCF-7 breast cancer cell line; experiment: MTT antiproliferative assay, MCF-7; assay type: cell-based; conditions: for IC50: MCF-7, MTT assay
Method: as §1, §2

[5] = system: MDA-MB-231/ADR breast cancer cell line; experiment: MTT antiproliferative assay, MDA-MB-231/ADR; assay type: cell-based; conditions: MDA-MB-231/ADR (drug-resistant)
Method: as §1, §2

[6] = system: MCF-7, MDA-MB-231, MCF-7/ADR, and MDA-MB-231/ADR breast cancer cell lines; experiment: MTT antiproliferative assay, summary over the breast cancer cell line panel; assay type: cell-based; conditions: range over the four breast cancer cell lines; read-out: IC50 range across MCF-7, MDA-MB-231, MCF-7/ADR and MDA-MB-231/ADR
Method: as §1, §2

[7] = MTT cytotoxicity assay, MCF-10A; conditions: human, MCF-10A normal breast cells
Method: as §1, §2

Compound	IC50 [1] [µM]	IC50 [2] [µM]	IC50 [3] [µM]	IC50 [4] [µM]	IC50 [5] [µM]	IC50 [6] [µM]	IC50 ([1]; Homo sapiens) [µM]	SI2: selectivity index IC50(MCF-10A)/IC50(MDA-MB-231) ([1]; IC50(MCF-10A)/IC50(MDA-MB-231))	IC50 ([2]; Homo sapiens, NCI/ADR-RES) [µM]	IC50 at 24 h [7] [µM]	IC50 ([4]; Homo sapiens, MCF7) [µM]	SI1: selectivity index IC50(MCF-10A)/IC50(MCF-7) ([4]; IC50(MCF-10A)/IC50(MCF-7))	IC50 ([5]; Homo sapiens) [µM]
3-((Benzyloxy)imino)-6-methyl-1-(3-(((3R,5aS,6R,8aS,9R,12R,12aR)-3,6,9-trimethyldecahydro-12H-3,12-epoxy[1,2]dioxepino[4,3-i]isochromen-10-yl)oxy)propyl)indolin-2-one [Hybrid 7l]	> 100	> 100	> 100	> 100	> 100								
3-(Methoxyimino)-1-(4-(((3R,5aS,6R,8aS,9R,12R,12aR)-3,6,9-trimethyldecahydro-12H-3,12-epoxy[1,2]dioxepino[4,3-i]isochromen-10-yl)oxy)butyl)indolin-2-one [Hybrid 7h]	73.9	77.5	> 100	85.2	80.3								
Cc1ccc2c(c1)C(=NO)C(=O)N2CCOC1O[C@@H]2O[C@@]3(C)CC[C@H]4[C@H](C)CC[C@@H]([C@H]1C)[C@@]24OO3 (stereo partly drawn) [Hybrid 7a, 3-(Hydroxyimino)-5-methyl-1-(2-(((3R,5aS,6R,8aS,9R,12R,12aR)-3,6,9-trimethyldecahydro-12H-3,12-epoxy[1,2]dioxepino[4,3-i]isochromen-10-yl)oxy)ethyl)indolin-2-one]						15.3 to 20.1	15.3	>6.53	20.1	> 100	19.4	>5.15	18.8
Cc1ccc2c(c1)C(=NOCc1ccccc1)C(=O)N2CCOC1O[C@@H]2O[C@@]3(C)CC[C@H]4[C@H](C)CC[C@@H]([C@H]1C)[C@@]24OO3 (stereo partly drawn) [Hybrid 7k, 3-((Benzyloxy)imino)-5-methyl-1-(2-(((3R,5aS,6R,8aS,9R,12R,12aR)-3,6,9-trimethyldecahydro-12H-3,12-epoxy[1,2]dioxepino[4,3-i]isochromen-10-yl)oxy)ethyl)indolin-2-one]							> 100		> 100	> 100	> 100		> 100
Cc1ccc2c(c1)C(=NOCc1ccccc1)C(=O)N2CCCCOC1O[C@@H]2O[C@@]3(C)CC[C@H]4[C@H](C)CC[C@@H]([C@H]1C)[C@@]24OO3 (stereo partly drawn) [Hybrid 7m, 3-((Benzyloxy)imino)-5-methyl-1-(4-(((3R,5aS,6R,8aS,9R,12R,12aR)-3,6,9-trimethyldecahydro-12H-3,12-epoxy[1,2]dioxepino[4,3-i]isochromen-10-yl)oxy)butyl)indolin-2-one]							> 100		> 100	> 100	> 100		> 100

Source: article PMC9695041, “The Anti-Breast Cancer Activity of Dihydroartemisinin-5-methylisatin Hybrids Tethered via Different Carbon Spacers” (Molecules, 2022)
